Assay results reported in patent US20100204460A1, “NATURAL BRASSINOSTEROIDS FOR USE FOR TREATING HYPERPROLIFERATION, TREATING PROLIFERATIVE DISEASES AND REDUCING ADVERSE EFFECTS OF STEROID DYSFUNCTION IN MAMMALS, PHARMACEUTICAL COMPOSITION AND ITS USE” (priority 2007, published 2010).

What was measured:
DU-145 cells = assay: Western blot of cell cycle and apoptosis related proteins, DU-145; type: cell-based; conditions: for MDM-2 level (Western blot) / anti-apoptotic protein Bcl-2 expression (Western blot): IC50 for 6, 12, 24 h vs untreated control; for p53 expression (Western blot): vs untreated control
Procedure: The cells were seeded in a density 1.6×10^4 cells/cm^2 (LNCaP), 1.4×10^4 cells/cm^2 (DU-145, MDA-MB-468 and MCF-7) using culture medium in 100-mm culture Petri dishes. After reaching of 70-80% confluence, the cells were treated with tested compounds 9 in concentration IC50 that were evaluated by MTT analysis described above. DMSO was used as a vehicle for controls. After 6, 12 and 24 h treatment, the cells were washed with cold PBS and scraped in ice-cold protein extract ion buffer (50 mM HEPES, pH 7.5; 150 mM NaCl; 1 mM EDTA; 2.5 mM EGTA; 10% glycerol; 0.1% Tween 20) with protease and phosphatase inhibitors (25 μL/mL phenylmethanesulphonyl fluoride; 2.5 μL/mL leupeptin; 0.1 mM Na3VO4; 2.5 μL/mL aprotinin; 10 mM β-glycerol-phosphate; 1 mM dithiothreitol). The lysates were collected into microfuge tube and incubated on ice for 1 h. Cells were incubated 60 min at 4° C. under time by time shaking in protein extraction buffer. After centrifugation at 45 000×g for 30 min at 4° C., supernatant was collected, aliquoted, and stored at −80° C. The protein content in the lysates was measured by a Bredford assay (Bio-Rad Laboratories, Hercules, Calif., USA) according to the manufacture's protocol.
For Western blot analysis, equal aliquots of proteins (15-30 μg/well) were loaded on 10% or 12% SDS-PAGE gels and transferred onto nitrocellulose membranes (Amersham Biosciences, Vienna, Austria) by semi-dry electrophoretic transfer. Coloured marker (Rainbow™, Amersham Biosciences, Vienna, Austria) was used as a protein molecular weight standard. The non-specific binding sites were blocked by incubating the blot with 5% (w/v) non-fat dry milk in PBS for 2 h. The blot was incubated overnight in 4° C. with appropriate primary antibody that detects the protein epitope of interest and finally washed in PBS with 0.1% Tween 20 for 1 h. The blot was incubated with the diluted secondary goat anti-mouse IgG-horseradish peroxidase conjugated antibody (dilution 1:6000, Santa Cruz Biotechnology, Santa Cruz, Calif., USA) or goat anti-rabbit IgG-horseradish peroxidase conjugated antibody (dilution 1:2000, DakoCytomation, Glostrup, Denmark) for 45 min in 4° C. The membrane was washed in PBS with 0.1% Tween 20 for 1 h. The proteins were detected using a chemiluminescence detection system (Amersham Biosciences, Vienna, Austria) according to the protocol provided by the manufacturer. Equality of loaded proteins was confirmed by Ponceau S membrane staining (Sigma, St. Louis, Mo., USA) and by detection of anti-tubulin-α or anti-mcm-7 antibodies. The experiments were repeated three times. The protein expressions in treated cells were compared to untreated controls.
Western blot analysis was used to detect changes in apoptosis related protein expression in breast and prostate cancer cell lines. […] This decreased expression of Bid can indicate a cleavage of the protein after treatment by BRs. In DU-145 cell line, expression of pro-apoptotic proteins Bax and Bid was unchanged. […] On the other hand, caspase cleavage was not found in DU-145 cells. Poly-(ADP-ribose) polymerase (PARP) positive expression in controls of prostate cancer cell lines was observed but brassinosteroids had no effect on its expression nor on its degradation within the period 6/12/24 h (FIG. 6B).

[1] = system: MCF-7, LNCaP and DU-145 cancer cell lines; assay: MTT cytotoxicity test, summary over cell lines; type: cell-based; conditions: over cell lines except MDA-MB-468; 24 h; read-out: IC50 value around which the cell lines move (MTT)
Procedure: Stock solutions ([…]) were prepared by dissolving relevant quantity of substance in DMSO cultivation media (DMEM, RPMI 1640, F-12 medium), fetal bovine serum (FBS), L-glutamine, penicillin, and streptomycin were purchased from Sigma (MO, USA). 3-(4,5-Dimethylthiazol-2-yl)-2,5-diphenyltetrazolium bromide (MTT) was from Serva Electrophoresis (Heidelberg, Germany). Monoclonal mouse anti-bromodeoxyuridine (BrdU) intibody was obtained from DakoCytomation (Glostrup, Denmark). Calcein AM was obtained from PAA Laboratories GmbH (Pasching, Austria). […]
Cell viability in this case was assessed by 3-(4,5-dimethylthiozol-2-yl)-2,5-diphenyltetrazolium bromide (MTT) to determine IC50 concentrations of studied agents as described previously. […] The absorbance was read using an ELISA reader Labsystem Multiscan RC at 570 nm. […]

Structure (SMILES)	MDM-2 level (Western blot) (DU-145 cells)	anti-apoptotic protein Bcl-2 expression (Western blot) (DU-145 cells)	p53 expression (Western blot) (DU-145 cells)	IC50 [1] [µM]
CC(C)[C@@H](C)[C@@H](O)[C@H](O)[C@@H](C)[C@H]1CC[C@H]2[C@@H]3COC(=O)[C@H]4C[C@H](O)[C@H](O)C[C@]4(C)[C@H]3CC[C@]12C [Brassinosteroid 6, 24-Epibrassinolide]	decreased level of MDM-2 in all time points	decreased after treatment with 9 (6, 12 and 24 h) or 6 (6 and 24 h)	no p53 expression changes	~61.7
CC[C@@H](C(C)C)[C@@H](O)[C@H](O)[C@@H](C)[C@H]1CC[C@H]2[C@@H]3CC(=O)[C@H]4C[C@H](O)[C@H](O)C[C@]4(C)[C@H]3CC[C@]12C [Brassinosteroid 9, 28-Homocastasterone]	decreased level of MDM-2 in all time points	decreased after treatment with 9 (6, 12 and 24 h)	no p53 expression changes	~43.3
